pIC50: −log10 of the molar value.
Key:
[1] = Drug uptake in Balb/c mouse plasma at 10 to 100 mg/kg, po; assay type: ADME, organism-based; conditions: in vivo
[2] = AUC (0 to 24 hrs) in mouse plasma at 100 mg/kg, po; assay type: ADME, organism-based; design: dose 100 mg/kg, time < 24 hr, route oral
[3] = Tmax in mouse plasma at 100 mg/kg, po; assay type: ADME, organism-based
[4] = Cmax in mouse plasma at 100 mg/kg, po; assay type: ADME, organism-based; design: dose 100 mg/kg, route oral
[5] = Drug uptake in po dosed Balb/c mouse ear after 8 hrs; assay type: ADME, organism-based; conditions: in vivo
[6] = test system: Mus musculus; assay: In vivo inverse agonist activity at RORgammat in Balb/c mouse assessed as inhibition of IL-23-induced IL-17a gene expression at 100 mg/kg, po administered 30 mins before and 8 hrs after IL-23 injection in ears intradermally measured after 24 hrs by qRT-PCR analysis relative to control; assay type: functional
[7] = test system: Mus musculus; assay: (§1) AUC (0 to 8 hrs) in mouse at 1 mg/kg, po administered as cassette dose; assay type: ADME, organism-based; design: time < 8 hr, dose 1 mg/kg, route oral; conditions: in vivo, 8 h
[8] = Drug uptake in po dosed Balb/c mouse ear; assay type: ADME, organism-based; conditions: in vivo
[9] = species: Homo sapiens; assay: Selectivity ratio of IC50 for RORbeta in human Jurkat cells to IC50 for RORgammat in human Jurkat cells; assay type: cell-based
[10] = molecular target: T1, Nuclear receptor ROR-gamma (Homo sapiens, UniProt P51449); assay: Inverse agonist activity at RORgammat in human Jurkat cells assessed as inhibition of transcriptional activity after overnight incubation by human IL-17 ROR response element driven-bright-glo luciferase reporter gene assay; assay type: cell-based
T1 sequence (P51449 whole entry): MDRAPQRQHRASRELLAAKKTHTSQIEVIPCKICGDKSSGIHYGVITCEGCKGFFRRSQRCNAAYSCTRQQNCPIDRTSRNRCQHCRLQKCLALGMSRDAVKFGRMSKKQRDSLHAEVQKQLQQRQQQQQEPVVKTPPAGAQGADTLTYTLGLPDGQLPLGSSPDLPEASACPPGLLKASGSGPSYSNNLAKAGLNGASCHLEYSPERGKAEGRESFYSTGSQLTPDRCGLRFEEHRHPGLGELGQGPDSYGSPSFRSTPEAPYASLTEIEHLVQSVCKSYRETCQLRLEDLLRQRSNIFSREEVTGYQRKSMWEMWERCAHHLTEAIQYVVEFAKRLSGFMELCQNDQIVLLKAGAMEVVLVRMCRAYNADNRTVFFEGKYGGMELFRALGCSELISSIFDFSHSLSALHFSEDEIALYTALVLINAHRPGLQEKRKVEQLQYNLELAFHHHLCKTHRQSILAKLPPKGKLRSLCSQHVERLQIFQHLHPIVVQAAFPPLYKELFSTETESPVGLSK

[11] = molecular target: T1, Nuclear receptor ROR-gamma; assay: Displacement of BODIPY-cholesterol from human His-tagged RORgammat after 20 mins by TR-FRET assay
[12] = species: Homo sapiens; assay: Selectivity ratio of IC50 for RORalpha in human Jurkat cells to IC50 for RORgammat in human Jurkat cells; assay type: cell-based
[13] = molecular target: T2, Nuclear receptor ROR-gamma (Homo sapiens) (UniProt P51449); assay: Displacement of 25-[3H2]hydroxycholesterol from GST-tagged RORgammat (unknown origin) at 10 uM
T2 sequence (whole entry): T1 sequence (P51449 whole entry)

[14] = as §1; assay type: ADME, organism-based; design: time < 8 hr, dose 1 mg/kg, route oral; conditions: in vivo

SMILES | pIC50 [10] | pIC50 [11] | AUC(0-t) at 8 h [14] | further results
COc1ccc([C@H](C(=O)Nc2cc(F)c([Si](C)(C)C)c(F)c2)N(C)C(=O)c2cc(O)no2)cc1 |  |  |  | Drug uptake [1]: Active; AUC(0-t) at 24 h [2]: 47400 ng·h/mL; Tmax [3]: 1 h; Cmax [4]: 9120 ng/mL; Drug uptake [5]: Active; inhibition in vivo at 100 mg/kg [6]: 71%; AUC [7]: 370 ng·h/mL; Drug uptake [8]: Dose-dependent effect and Tde
COc1ccc(C(C(=O)Nc2ccc(C(C)C)cc2)N(C)C(=O)c2ccc(O)nc2)cc1 (racemic) | 5.80 | 6.70 |  | Ratio IC50 [9]: > 15; Ratio IC50 [12]: > 15; inhibition [13]: 93%
COc1ccc(C(C(=O)Nc2ccc([Si](C)(C)C)cc2)N(C)C(=O)c2ccc(O)nc2)cc1 (racemic) |  |  | 86 ng·h/mL | 
COc1ccc(C(CC(=O)Nc2ccc(C(C)(C)C)cc2)N(C)C(=O)c2ccc(=O)[nH]c2)cc1 (racemic) | < 4.52 | < 5.00 |  | 
COc1ccc(CC(C(=O)Nc2ccc(C(C)(C)C)cc2)N(C)C(=O)c2ccc(=O)[nH]c2)cc1 (racemic) | < 4.52 | < 5.00 |  | 
COc1ccc(C(C(=O)Nc2cc(F)c([Si](C)(C)C)c(F)c2)N(C)C(=O)c2cc(O)no2)cc1 (racemic) |  |  | 1510 ng·h/mL | 
COc1ccc(C(C(=O)Nc2ccc([Si](C)(C)C)cc2)N(C)C(=O)c2cc(O)no2)cc1 (racemic) |  |  | 1590 ng·h/mL | 
COc1ccc(C(C(=O)N(C)c2ccc(C(C)(C)C)cc2)N(C)C(=O)c2ccc(=O)[nH]c2)cc1 (racemic) | < 4.52 | < 5.00 |  | 

Source: ChEMBL document CHEMBL4184189, “Discovery of orally efficacious RORγt inverse agonists, part 1: Identification of novel phenylglycinamides as lead scaffolds” (Bioorg Med Chem, 2018)
